What all share (format): functional
Test [1] is described as follows: THP-1 cell cytotoxicity, dose response, cytotoxicity control for Vif-APOBEC3G degradation inhibitor project, THP-1 cells (AID 1117359). Particulars: Human immunodeficiency virus 1, THP-1.
A further test has as its system Vero. Nature of the test: Vero cell cytotoxicity, cytotoxicity control for flavivirus capping enzyme inhibitors (AID 588742). The conditions noted are these: Chlorocebus sabaeus.
For another test, the target named is Beta-arrestin-1 (Homo sapiens, UniProt P49407). Nature of the test: inhibitors of arrestin peptide binding to AP2, dose response, biochemical, cherry pick 1, beta2-adaptin appendage, flow cytometry (AID 588783). For orientation: A flow cytometer gives signals particle by particle.
Another test concerns the target Beta-galactosidase (Escherichia coli, UniProt Q8VNN2). Put plainly: beta-galactosidase enzyme inhibitors and activators, dose response, artefact control for CCR6 antagonist project, biochemical, E. coli enzyme, set 3 (AID 504712).
The target of test [2] is T1, Rac GTPase-activating protein 1 (Homo sapiens, UniProt Q9H0H5).
T1 sequence (Q9H0H5 whole entry): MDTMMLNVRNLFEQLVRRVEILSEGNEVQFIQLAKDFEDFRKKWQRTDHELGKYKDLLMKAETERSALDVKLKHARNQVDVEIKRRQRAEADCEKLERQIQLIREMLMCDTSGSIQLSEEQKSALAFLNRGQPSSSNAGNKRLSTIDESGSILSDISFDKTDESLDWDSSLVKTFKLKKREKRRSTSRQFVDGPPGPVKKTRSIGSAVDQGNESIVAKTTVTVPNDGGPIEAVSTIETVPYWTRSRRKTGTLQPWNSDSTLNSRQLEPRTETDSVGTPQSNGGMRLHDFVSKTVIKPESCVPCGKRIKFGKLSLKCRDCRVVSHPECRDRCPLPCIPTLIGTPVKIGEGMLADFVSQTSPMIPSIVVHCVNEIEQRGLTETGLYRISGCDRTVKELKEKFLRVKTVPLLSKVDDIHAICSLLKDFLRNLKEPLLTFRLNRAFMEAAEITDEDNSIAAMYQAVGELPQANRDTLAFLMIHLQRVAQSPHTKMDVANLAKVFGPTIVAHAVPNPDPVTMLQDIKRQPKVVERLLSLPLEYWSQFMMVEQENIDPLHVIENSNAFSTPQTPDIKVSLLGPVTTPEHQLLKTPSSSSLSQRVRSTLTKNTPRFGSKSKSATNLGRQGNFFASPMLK
Put plainly: MgcRacGAP GTPase-activating activity inhibitors, confirmation, biochemical, ADP Hunter fluorescence, primary and confirmatory (AID 624330).

Test [3] in a line: HeLa cell cytotoxicity, dose response, cytotoxicity control for MgcRacGAP inhibitor project (AID 624300).
Test [4] deals with Induced myeloid leukemia cell differentiation protein Mcl-1 (Homo sapiens, UniProt Q07820).
The next test deals with Genome polyprotein (dengue virus type 2, UniProt P29990). Put plainly: Dengue-2 NS5 methyltransferase inhibitors, primary screen, biochemical, confirmation dose response (AID 588689).
Test [5] addresses DNA dC->dU-editing enzyme APOBEC-3G (Homo sapiens, UniProt Q9HC16). Nature of the test: Dose Response confirmation of small molecule APOBEC3G DNA Deaminase Inhibitors via a fluorescence-based single-stranded DNA deaminase assay. [Related pubchem assays (depositor defined):AID493012, AID493028].

Calls of active or inactive are those of the source. Some results are limits rather than exact numbers.

Chain of DNA dC->dU-editing enzyme APOBEC-3G (Q9HC16 whole entry): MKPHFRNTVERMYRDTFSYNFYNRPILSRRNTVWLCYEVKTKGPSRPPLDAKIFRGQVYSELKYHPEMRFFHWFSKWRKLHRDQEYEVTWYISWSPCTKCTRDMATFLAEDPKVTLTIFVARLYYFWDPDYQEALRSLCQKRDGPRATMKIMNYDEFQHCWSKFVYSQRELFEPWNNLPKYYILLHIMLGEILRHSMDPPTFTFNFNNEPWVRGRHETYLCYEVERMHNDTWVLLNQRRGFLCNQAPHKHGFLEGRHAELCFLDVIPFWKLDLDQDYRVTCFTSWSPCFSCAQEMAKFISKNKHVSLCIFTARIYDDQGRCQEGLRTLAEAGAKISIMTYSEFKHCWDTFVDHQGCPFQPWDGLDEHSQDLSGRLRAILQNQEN
Chain of Beta-galactosidase (Q8VNN2 whole entry): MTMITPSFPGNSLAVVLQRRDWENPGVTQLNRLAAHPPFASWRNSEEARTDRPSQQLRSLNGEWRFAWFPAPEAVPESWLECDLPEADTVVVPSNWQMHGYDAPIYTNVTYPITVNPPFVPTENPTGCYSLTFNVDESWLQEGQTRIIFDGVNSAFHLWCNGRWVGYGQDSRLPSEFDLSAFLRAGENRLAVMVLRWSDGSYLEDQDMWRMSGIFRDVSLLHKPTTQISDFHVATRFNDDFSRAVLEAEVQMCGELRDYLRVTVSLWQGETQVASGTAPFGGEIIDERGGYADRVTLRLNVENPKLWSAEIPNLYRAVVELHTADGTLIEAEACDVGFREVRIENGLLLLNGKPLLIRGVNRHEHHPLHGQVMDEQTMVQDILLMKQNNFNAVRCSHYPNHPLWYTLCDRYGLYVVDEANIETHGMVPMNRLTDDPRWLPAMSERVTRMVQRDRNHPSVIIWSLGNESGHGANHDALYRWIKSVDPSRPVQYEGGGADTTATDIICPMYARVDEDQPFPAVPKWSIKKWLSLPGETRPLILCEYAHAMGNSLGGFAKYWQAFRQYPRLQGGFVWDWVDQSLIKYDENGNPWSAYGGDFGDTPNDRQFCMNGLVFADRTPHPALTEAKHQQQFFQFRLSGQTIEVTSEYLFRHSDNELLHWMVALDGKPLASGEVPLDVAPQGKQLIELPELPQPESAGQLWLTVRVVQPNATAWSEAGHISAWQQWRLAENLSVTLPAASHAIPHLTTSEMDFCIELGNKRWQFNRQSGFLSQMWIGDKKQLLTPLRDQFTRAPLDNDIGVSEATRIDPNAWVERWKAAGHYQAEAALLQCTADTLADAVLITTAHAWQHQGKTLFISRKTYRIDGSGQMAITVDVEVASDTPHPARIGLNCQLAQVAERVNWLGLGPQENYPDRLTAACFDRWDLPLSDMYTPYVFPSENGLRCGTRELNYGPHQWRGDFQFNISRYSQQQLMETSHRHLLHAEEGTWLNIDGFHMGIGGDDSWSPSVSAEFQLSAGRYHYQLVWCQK
Chain of Induced myeloid leukemia cell differentiation protein Mcl-1 (Q07820 whole entry): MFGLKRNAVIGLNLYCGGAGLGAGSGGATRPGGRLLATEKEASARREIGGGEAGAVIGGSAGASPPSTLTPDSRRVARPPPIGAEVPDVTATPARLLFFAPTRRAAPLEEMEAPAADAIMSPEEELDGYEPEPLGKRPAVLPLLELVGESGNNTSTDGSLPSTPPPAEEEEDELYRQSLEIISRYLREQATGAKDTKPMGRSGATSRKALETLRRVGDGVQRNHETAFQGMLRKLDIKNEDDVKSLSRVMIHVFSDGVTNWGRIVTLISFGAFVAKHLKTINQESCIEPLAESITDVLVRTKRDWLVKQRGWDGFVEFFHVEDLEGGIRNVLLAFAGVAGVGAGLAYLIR
Chain of Beta-arrestin-1 (P49407 whole entry): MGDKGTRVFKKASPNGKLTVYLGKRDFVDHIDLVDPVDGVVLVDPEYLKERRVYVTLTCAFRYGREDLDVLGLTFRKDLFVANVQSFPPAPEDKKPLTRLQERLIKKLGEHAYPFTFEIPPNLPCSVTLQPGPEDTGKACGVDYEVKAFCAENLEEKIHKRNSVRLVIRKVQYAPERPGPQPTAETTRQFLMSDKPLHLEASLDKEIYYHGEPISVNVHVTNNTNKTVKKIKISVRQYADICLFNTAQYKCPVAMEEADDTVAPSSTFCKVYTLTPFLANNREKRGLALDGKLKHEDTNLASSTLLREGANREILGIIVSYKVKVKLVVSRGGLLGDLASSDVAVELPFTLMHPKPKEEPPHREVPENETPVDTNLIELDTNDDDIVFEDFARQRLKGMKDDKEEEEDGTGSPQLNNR
Chain of Genome polyprotein (P29990 2492-3391 limits assumed): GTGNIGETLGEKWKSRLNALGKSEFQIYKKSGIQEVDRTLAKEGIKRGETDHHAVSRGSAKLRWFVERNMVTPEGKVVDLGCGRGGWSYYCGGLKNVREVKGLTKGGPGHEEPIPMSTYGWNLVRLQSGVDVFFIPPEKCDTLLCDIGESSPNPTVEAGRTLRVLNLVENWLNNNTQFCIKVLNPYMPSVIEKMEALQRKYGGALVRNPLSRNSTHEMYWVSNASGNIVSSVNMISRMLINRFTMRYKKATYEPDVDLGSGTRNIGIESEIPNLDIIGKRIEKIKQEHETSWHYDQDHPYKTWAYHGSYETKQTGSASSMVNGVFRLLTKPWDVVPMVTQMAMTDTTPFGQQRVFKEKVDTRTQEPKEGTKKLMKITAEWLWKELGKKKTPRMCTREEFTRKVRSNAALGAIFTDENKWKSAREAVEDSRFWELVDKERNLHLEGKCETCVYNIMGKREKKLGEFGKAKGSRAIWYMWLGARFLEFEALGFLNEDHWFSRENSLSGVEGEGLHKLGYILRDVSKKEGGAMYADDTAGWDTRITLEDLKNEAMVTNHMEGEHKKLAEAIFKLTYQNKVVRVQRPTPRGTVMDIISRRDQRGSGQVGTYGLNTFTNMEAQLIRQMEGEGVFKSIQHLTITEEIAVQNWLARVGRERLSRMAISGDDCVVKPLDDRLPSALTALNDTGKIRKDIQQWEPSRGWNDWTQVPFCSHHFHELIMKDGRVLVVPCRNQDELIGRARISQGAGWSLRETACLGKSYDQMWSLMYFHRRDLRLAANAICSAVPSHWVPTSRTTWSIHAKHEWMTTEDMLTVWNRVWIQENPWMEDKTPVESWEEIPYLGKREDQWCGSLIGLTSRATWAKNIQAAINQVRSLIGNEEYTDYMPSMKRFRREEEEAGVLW

Regarding `CCC(=O)NC1=C(Cl)C(=O)C(NC(=O)CC)=C(Cl)C1=O`, the 50% cytotoxic concentration (CC50) (usually the concentration that lowers cell viability or growth by half) in [1] was 33.9 µM (active); with Vero it was 24 µM (active); in test [3] it was 48 µM (active). The half-inhibitory concentration (IC50) (usually the concentration needed to halve the response being measured) at Beta-arrestin-1 is 2.79 µM (active); on Beta-galactosidase, > 66.6 µM (inactive); in test [2], 23.3 µM (active); in test [4] it was 4.29 µM (active); on Genome polyprotein it was 5.19 µM (active); in test [5], 2.67 µM (active).

Source of the values: ChEMBL document CHEMBL1201862, “PubChem BioAssay data set” (2004).
